Key:
Type in all cases: in vivo
[1] = tested on: Avena fatua (AVEFA); experiment: Post-emergence herbicidal activity, glasshouse pot test; details: 1000 g/ha, post-emergence spray after 8 days cultivation, evaluated after 13 days, damage score 0-5
Method: (§1) Seeds of a variety of test species were sown in standard soil in pots: Triticum aestivium (TRZAW), Avena fatua (AVEFA), Alopecurus myosuroides (ALOMY), Echinochloa crus-galli (ECHCG), Lolium perenne (LOLPE), and Setaria faberi (SETFA). After 8 days cultivation (post-emergence) under controlled conditions in a glasshouse (at 24/16° C., day/night; 14 hours light; 65% humidity), the plants were sprayed with an aqueous spray solution derived from the formulation of the technical active ingredient in acetone/water (50:50) solution containing 0.5% Tween 20 (polyoxyethelyene sorbitan monolaurate, CAS RN 9005-64-5). The test plants were then grown in a glasshouse under controlled conditions (at 24/16° C., day/night; 14 hours light; 65% humidity) and watered twice daily. After 13 days, the test was evaluated (5=total damage to plant; 0=no damage to plant).

[2] = tested on: Echinochloa crus-galli (ECHCG); experiment: as above; design: key: 5=total damage to plant; 0=no damage to plant; details: 1000 g/ha, post-emergence spray after 8 days cultivation, evaluated after 13 days, damage score 0-5
Method: as §1

[3] = tested on: Lolium perenne (LOLPE); experiment: as above; design: key: 5=total damage to plant; 0=no damage to plant; details: 1000 g/ha, post-emergence spray after 8 days cultivation, evaluated after 13 days, damage score 0-5
Method: as §1

[4] = tested on: Setaria faberi (SETFA); experiment: as above; design: key: 5=total damage to plant; 0=no damage to plant; details: 1000 g/ha, post-emergence spray after 8 days cultivation, evaluated after 13 days, damage score 0-5
Method: as §1

[5] = tested on: Alopecurus myosuroides (ALOMY); experiment: as above; design: key: 5=total damage to plant; 0=no damage to plant; details: 1000 g/ha, post-emergence spray after 8 days cultivation, evaluated after 13 days, damage score 0-5
Method: as §1

[6] = tested on: Triticum aestivium (TRZAW); experiment: as above; design: key: 5=total damage to plant; 0=no damage to plant; details: 1000 g/ha, post-emergence spray after 8 days cultivation, evaluated after 13 days, damage score 0-5
Method: as §1

[7] = tested on: Echinochloa crus-galli (ECHCG); experiment: Pre-emergence herbicidal activity, glasshouse pot test; design: key: 5=total damage to plant; 0=no damage to plant; details: 1000 g/ha, pre-emergence spray, evaluated after 13 days, damage score 0-5
Method: as §1, with “After” for “After 8 days”, “for one day (pre-emergence)” for “(post-emergence)”

[8] = tested on: Lolium perenne (LOLPE); experiment: as above; design: key: 5=total damage to plant; 0=no damage to plant; details: 1000 g/ha, pre-emergence spray, evaluated after 13 days, damage score 0-5
Method: as §1, with “After” for “After 8 days”, “for one day (pre-emergence)” for “(post-emergence)”

[9] = tested on: Avena fatua (AVEFA); experiment: as above; design: key: 5=total damage to plant; 0=no damage to plant; details: 1000 g/ha, pre-emergence spray, evaluated after 13 days, damage score 0-5
Method: as §1, with “After” for “After 8 days”, “for one day (pre-emergence)” for “(post-emergence)”

[10] = tested on: Setaria faberi (SETFA); experiment: as above; design: key: 5=total damage to plant; 0=no damage to plant; details: 1000 g/ha, pre-emergence spray, evaluated after 13 days, damage score 0-5
Method: as §1, with “After” for “After 8 days”, “for one day (pre-emergence)” for “(post-emergence)”

[11] = tested on: Alopecurus myosuroides (ALOMY); experiment: as above; design: key: 5=total damage to plant; 0=no damage to plant; details: 1000 g/ha, pre-emergence spray, evaluated after 13 days, damage score 0-5
Method: as §1, with “After” for “After 8 days”, “for one day (pre-emergence)” for “(post-emergence)”

[12] = tested on: Triticum aestivium (TRZAW); experiment: as above; design: key: 5=total damage to plant; 0=no damage to plant; details: 1000 g/ha, pre-emergence spray, evaluated after 13 days, damage score 0-5
Method: as §1, with “After” for “After 8 days”, “for one day (pre-emergence)” for “(post-emergence)”

| Compound | Control of weed species after post-emergence application, AVEFA [1] | Control of weed species after post-emergence application, ECHCG [2] | Control of weed species after post-emergence application, LOLPE [3] | Control of weed species after post-emergence application, SETFA [4] | Control of weed species after post-emergence application, ALOMY [5] | Control of weed species after post-emergence application, TRAZW [6] | Control of weed species after pre-emergence application, ECHCG [7] | Control of weed species after pre-emergence application, LOLPE [8] | Control of weed species after pre-emergence application, AVEFA [9] | Control of weed species after pre-emergence application, SETFA [10] | Control of weed species after pre-emergence application, ALOMY [11] | Control of weed species after pre-emergence application, TRAZW [12] |
| --- | --- | --- | --- | --- | --- | --- | --- | --- | --- | --- | --- | --- |
| COCC(=O)Nc1cnc(-c2cncc(F)c2)nc1C(F)(F)F [Compound F3] | 4 | 4 | 2 | 4 | 0 | 1 | 3 | 1 | 2 | 3 | 0 | 0 |
| O=C(Nc1cnc(-c2cncc(F)c2)nc1C(F)(F)F)C1CC1 [Compound F14, N-[2-(5-fluoro-3-pyridyl)-4-(trifluoromethyl)-pyrimidin-5-yl]cyclopropanecarboxamide] | 3 | 5 | 4 | 5 | 0 | 1 | 4 | 2 | 2 |  | 0 | 0 |
| O=C(Nc1cnc(-c2cncc(F)c2)nc1C(F)(F)F)C1CCCCC1 [Compound F27] | 1 | 3 | 0 | 2 | 0 | 0 | 0 | 0 | 0 | 0 | 0 | 0 |
| N#CCN(C(=O)C1CC1)c1cnc(-c2cncc(F)c2)nc1C(F)(F)F [Compound F30] | 2 | 4 | 2 | 5 | 1 | 1 | 3 | 2 | 2 | 4 | 0 | 1 |
| CCCCC(=O)Nc1cnc(-c2cncc(F)c2)nc1C(F)(F)F [Compound F12] | 3 | 4 | 2 | 5 | 0 | 0 | 3 | 1 | 2 |  | 0 | 0 |
| CC(C)C(=O)Nc1cnc(-c2cncc(F)c2)nc1C(F)(F)F [Compound F13] | 3 | 5 | 2 | 5 | 0 | 0 | 4 | 1 | 2 |  | 0 | 0 |
| Cc1nc(-c2cncnc2)ncc1N(C(=O)C(C)C)C(=O)C(C)C [Compound F2, 2-methyl-N-(2-methylpropanoyl)-N-(4-methyl-2-pyrimidin-5-yl-pyrimidin-5-yl)propanamide] | 3 | 5 | 1 |  | 0 | 0 | 4 | 0 | 2 | 5 | 0 | 0 |
| CC(=O)Nc1cnc(-c2cncc(F)c2)nc1C(F)(F)F [Compound F11] | 3 | 4 | 2 | 5 | 1 | 1 | 4 | 1 | 2 |  | 0 | 0 |
| Cc1nc(-c2cncnc2)ncc1NC(=O)C(C)C [Compound F1, 2-methyl-N-(4-methyl-2-pyrimidin-5-yl-pyrimidin-5-yl)propanamide] | 3 | 4 | 1 |  | 0 | 0 | 3 | 0 | 2 | 5 | 0 | 0 |
| COCCC(=O)Nc1cnc(-c2cncc(F)c2)nc1C(F)(F)F [Compound F15] | 3 | 4 | 2 | 5 | 0 | 1 | 4 | 0 | 2 |  | 0 | 0 |

Reference: US20200267980A1, “Herbicidally Active Pyridyl-/Pyrimidyl-Pyrimidine Derivatives” (Syngenta Participations AG, priority 2017, published 2020)
